Results on 10 compounds are retold here after US20150344535A1, “NEUROTROPHIN-TYROSINE KINASE RECEPTOR SIGNALING” (THE UNIVERSITY OF QUEENSLAND, priority 2012, published 2015).

In assay [1] the test system is PC12 cells. Description: PC12 cell neurite outgrowth in response to NGF. Format: cell-based. As to conditions: for neurite growth: fragments incubated with PC12 cells and NGF, FIG. 16. As for the experimental part: (§1) To assess the effect of p75^NTR constructs (FIG. 2) or c29 peptide on TrkA-mediated neuritogenesis, transfected PC12 cells were grown in the presence of 100 ng/ml NGF for 3 days, with fresh medium and NGF treatments added on day 2. Cells were then imaged live on an Olympus (IX81) microscope fitted with a CO2 atmospheric chamber, using analySIS software. Four random images of 80-100 cells were taken for each treatment condition and images were determined by measuring polygon neurite length of all cells in each image. Data analysis was performed using Graphpad PRISM.
Once PC12 cells are fully differentiated, they become dependent on NGF for survival (Greene, 1978), but can survive if grown in the presence of lower concentrations of NGF (Greene and Tischler, 1976). To determine if c29 could potentiate TrkA-mediated signals, PC12 cells were cultured in the presence of NGF concentrations ranging from 1-100 ng/ml for 5 days, following serum starvation and pre-incubation with c29, scrambled control peptide or no peptide (FIG. 5A). […] Peptides (1 μM) were added to the cultures every 48 hours at the time of NGF addition and medium exchange.

The test system of assay [2] is PC12 cells. Description: PC12 cell neurite outgrowth in response to EGF. Format: cell-based. The following applies: EGF plus secretase inhibitor, 5 days. The protocol: as §1
To determine whether the effect of the c29 peptide on enhancement of neurite outgrowth was NGF and TrkA specific, we repeated the experiment using EGF to stimulate differentiation.

For assay [3], the system named is PC12 cells. Briefly: PC12 cell neurite outgrowth in response to NGF. The format is cell-based. As to conditions: NGF plus secretase inhibitor over 5 days.
Assay [4] concerns TrkA. Description: Biotinylated peptide pull down of TrkA. The following applies: TrkA pull downs, FIG. 15F. The format is binding. The protocol:
For peptide pull down assays, the biotinylated c29 or LC1 control peptides were incubated with protein A-sepharose beads or Dynabeads MyOne Streptavidin T1 (Invitrogen) overnight at 4° C. Cell lysates were then added to the peptide-protein A-sepharose complex or Dynabeads MyOne Streptavidin T1 and incubated for 3 hours at 4° C. Peptide-receptor complexes were washed extensively with RIPA lysis buffer and eluted by boiling in Laemmli sample buffer. For p75^NTR construct immunoprecipitations, HEK293 cells were treated with NGF at 50 ng/ml for 10 minutes 48 hours after transfection with 1 μg DNA per well. Cells were immediately harvested in ice-cold phosphate buffered saline (PBS) and washed twice, then lysed in 1 ml of lysis buffer. Cell lysates were pre-cleared in 75 μl (1:2) protein-G sepharose: PBS by rotation end-over-end for 2 hours at 4′C. Lysates were then incubated with 3-5 μg antibody, either mouse-anti-YFP/GFP (Roche) or rabbit-anti-human p75^NTR intracellular domain antibody (Promega), and rotated end-over-end for 2 hours at 4° C.
(§2) Immunoprecipitation was performed by the addition of 75 μl (1:2) protein-G sepharose: PBS and incubation end-over-end for 16 hours at 4° C. The immunoprecipitate was washed 4 times with 1 ml of PBS then eluted in 60 μl 2×LDS sample buffer. For immunoblotting, samples were boiled for 5 minutes, separated by SDS-PAGE and transferred onto nitrocellulose membranes, then western blotted using standard protocols (see Example 1 for antibodies used).
The c29 peptide was labelled with biotin and attached to a sepharose bead column. Lysates from cells was passed over the column followed by several wash steps. The proteins that bound to the c29 peptide (proteins that are pulled down) were eluted from the column with SDS buffer and separated in size by SDS-PAGE electrophoresis. The gel was Western blotted and the membrane probed with antibodies to proteins of interest.

Assay [5] concerns p75^FL. Description: Production of endogenous p75^CTF or p75^ICD fragments in p75^FL-transfected HEK293 cells. The format is cell-based. As to conditions: vs untreated cells, data not shown.
The subject of assay [6] is PC12 cells. Briefly: NGF-FITC binding by flow cytometry, PC12 cells. As to conditions: NGF-FITC, c.f. PC12. The protocol:
The NGF was conjugated to FITC by standard methods and detailed flow cytometry acquisition and analysis. For NGF-FITC conjugation 400 μg βNGF in 200 μl pH 8.5 NaHCO3 buffer was mixed with 5-10 μl of 10 mg/ml FITC in 100 μl DMSO for 10 hours at 4° C. on an orbital shaker set to 100 rpm. The excess FITC was removed by dialysis against 3 changes of 5 L of 10 mM Tris, 150 mM NaCl, 0.2% acetic acid, pH 8.2 for 24 hours at 4° C. Conjugate F/P characterization was determined by measuring absorbance at 280 nm and 495 nm according to manufacturer's instructions. Biological activity of the NGF-FITC conjugate was tested by performing PC12 cell neurite outgrowth assays unlabelled NGF, and comparing the levels of neuritogenesis. NGF-FITC conjugates were used within 4 weeks of synthesis.
For the flow cytometry NGF binding assays, fluorescence cell parameters of at least 20,000 events for PC12 cells and 100,000 events for HEK293 cells were acquired by flow cytometry list mode and measurements were performed on a single cell basis (with compensation for double event counting). Dead cells and debris were gated out of the analysis on the basis of forward scatter fluorescence, and mean, median and maximal fluorescence values of the gated cell populations were analysed using FACS Diva Software (Becton-Dickinson Biosciences) and FACS Express Software (Becton-Dickinson Biosciences).
(§3) Background fluorescence of HEK293 cells was non-transfected cells (±c29 or scrambled peptide treatment) treated with 26 nM NGF-FITC. For PC12 cells, the control population was cells that had not been treated with NGF-FITC. Analysis of real-time NGF-FITC receptor binding experiments was performed on 550,000-600,000 cells at 4° C. in serum free NB medium and binding kinetics were calculated from raw data files compressed to 50,000 binding events using FlowJo and MatLab Software. Data was plotted with the use of GraphPad Prism.
(§4) Only NGF-FITC preparations that promoted equivalent neurite outgrowth of PC12 cells to that of unlabelled NGF were used in binding experiments. To investigate NGF binding, PC12 or transfected HEK293 cells were serum starved for 4 hours, harvested, washed with Dulbecco's Modified Eagle Medium (DMEM), and counted. When used, c29 or scrambled peptide were added to cultures for the third hour of the serum starvation procedure. 1×10^7 cells/ml suspended in 500 μl of serum-free DMEM were incubated with 26 nM NGF-FITC on ice for 60 minutes before analysis. For binding competition assays, following 1 hour in NGF-FITC, cells were washed with ice-cold PBS containing 0.1% normal bovine serum and incubated on ice with unlabeled NGF at concentrations ranging from 100 pM to 10 μM for 30 minutes, then washed twice in PBS before being analysed on a BD Flow Cytometer FACS Scan (Becton-Dickinson).
First, to determine the concentration of c29 required to modulate NGF binding, c29 levels were titrated with a fixed concentration of NGF-FITC.
In general terms: A flow cytometer gives signals particle by particle.

The subject of assay [7] is primary E13 motor neurons. Description: Primary motor neuron survival and growth factor withdrawal. Format: cell-based, mouse. As to conditions: 1 ng/ml BDNF plus NGF.
Protocol: Briefly, pregnant mothers were sacrificed by cervical dislocation and the uterus removed by Caesarean section and placed in Neurobasal medium. Lumbar spinal cords were dissected from E13 embryos on ice. Batches of 2 or 3 spinal cords were incubated in 1 mL 0.05% trypsin-ETDA for 10 minutes at 37° C. in 15 mL tubes. To prevent further trypsinisation, 0.14 mg/mL trypsin inhibitor solution was added and the tissue centrifuged at 100×g for 7 minutes, without acceleration or deceleration. The supernatant was removed and the spinal cord tissue was resuspended in 1 mL of Neurobasal Medium (NB). In order to obtain a single cell suspension, each batch of 2-3 spinal cords was agitated manually for 2 minutes. The suspension was allowed to settle and the supernatant collected after being filtered through a 100 μm sieve. The remaining tissue was further triturated ˜8 times through a P200 pipette and filtered through a 100 μm sieve. The combined supernatants were then separated by centrifugation on a 5 ml cushion of 9% (vol/vol) OptiPrep® gradient in NB containing 2% B27 supplement for 45 min at 850×g, without acceleration or deceleration. To prevent toxicity following Optiprep® separation, the layer containing MNs was harvested into 10 mL of NB containing 10% HS, and the cell suspension was centrifuged at 900×g for 7 minutes at 24° C., without acceleration or deceleration. The supernatant was removed and the cell pellet was resuspended in 1 mL of NB medium.
The number of viable motor neurons was counted on a haemocytometer using 0.08% trypan blue and neurons plated in 4-well culture dishes at a density of 3,000 cells per well in 100 μL NB containing 10% HS. […] Primary motor neurons were maintained at 37° C. in a humidified atmosphere with 5% CO2 and culture medium was replaced at day 1 and 3. Phase contrast images of motor neurons were taken using an Olympus (6IX81) microscope after motor neurons were grown in vitro for up to 7 days.
To assess the effects of c29 peptide on motor neuronal survival in limiting growth factor concentrations, isolated spinal motor neurons were plated and treated with 0.01, 0.1 or 1.0 ng/ml of BDNF in the presence of 1 μm PTD4-linked c29 or scrambled peptide, and cultured for 5 days with the addition of fresh BDNF and peptide treatments on day 2 and 4. For growth factor-withdrawal assays, following initial plating in 1 ng/ml of BDNF, CNTF or GDNF, cultures were washed four times with serum-free Neurobasal (NB) medium, after which the medium was replaced with medium containing 1-0.01 ng/ml of BDNF, CNTF or GDNF and 1 μM PTD4-linked c29 or scrambled peptides, as indicated. For assays investigating the effect of c29 on NGF-mediated motor neuron death, cultures were grown in 1 ng/ml BDNF, CNTF or GDNF for 1 day, before being treated with 100 ng/ml 2.5S NGF in and 1 μM PTD4-linked c29 or scrambled peptide, as indicated. Motor neurons were counted on day 1, and to assess the effects of various treatments days 3 and 5 (4 separate 10×10 grid fields of each well per experiment).
Assay [8] deals with HEK293 cells. Description: NGF-FITC binding by flow cytometry, non-transfected HEK293 cells. The protocol: as §3
as §4, with “1×10^7 cells/ml suspended in 500 μl of serum-free DMEM were incubated with 26 nM NGF-FITC on ice for 60 minutes before analysis.” left out

Assay [9] concerns TrkA and p75^NTR. Briefly: Surface biotinylation of receptors in PC12 cells. As to conditions: 1 μM peptide, with or without NGF. The format is cell-based. As for the experimental part: FIG. 10: The juxtamembrane domain of p75^NTR increases the association of NGF to cells expressing TrkA. (A and B) Dose response graphs of the proportion (%) of PC12 cells with fluorescence intensity above background following treatment with 26 […] NGFFITC, a FITC-conjugated antibody to the extracellular domain of p75^NTR (A), or an antibody to TrkA (detected using an anti-rabbit Alexa 594 secondary) (B), after pretreatment with increasing concentrations of […] peptide. (n=3 experiments per data point; mean±SEM *p<0.05, **p<0.01) (C) Representative western blots (WB) of TrkA and p75^NTR present in streptavidin precipitates (surface biotin), or lysate flow through of PC12 cells that had been treated for 1 hour with NGF and/or c29 and scrambled (SC) peptide, prior to the surface proteins being labelled with biotin for 90 minutes on ice.

The subject of assay [10] is pErk1/2 and pAkt. Briefly: Western blot of pErk1/2 and pAkt in PC12 cell lysates. Format: cell-based. As to conditions: absence of NGF, 24 hours. The protocol:
In biochemical experiments, PC12 and HEK293 cells were lysed for 20 minutes on ice in lysis buffer as described by (Ceni et al., 2010). Briefly, the lysis buffer contained 10 mM Tris-HCl, 150 mM NaCl, 2 mM EDTA, 1% (v/v) NP-40, 1% (v/v) TX-100, 10% Glycerol, 1 mM PMSF, 1 mM Sodium Orthovanadate, 1 μM BB94, 1% (v/v) Roche protease inhibitor cocktail and pH 8.0 (Ceni et al., 2010).
as §2
The observed functional effects on neurite outgrowth and survival were next correlated with enhanced activation of signal transduction pathways that mediate the trophic effects of TrkA. Lysates of cells treated for 24 hours with NGF alone or in combination with c29 or scrambled peptide were immunoblotted for pErk1/2 (neurite outgrowth), and the serine/threonine protein kinase Akt (survival). […] Total levels of Erk1/2 or Akt were unaffected by any treatment (FIG. 6 A, B).
For orientation: A western blot detects proteins with antibodies after separation by electrophoresis.

Regarding ARWNSC [c1-6K1A], in assay [1], the neurite growth entry was “stimulated neurite growth”.

`CC(C)C[C@H](CC(=O)NO)C(=O)N[C@H](C(=O)N[C@@H](C)C(=O)NCCN)C(C)(C)C` [TAPI-2, N—(R)-(2-(Hydroxyaminocarbonyl)Methyl)-4-Methylpentanoyl-L-t-Butyl-Glycine-L-Alanine 2-Aminoethyl Amide]: the “PC12 cell differentiation induced by EGF” value in assay [2] is recorded as “neither the α- nor the γ-secretase inhibitor had any significant effect”. In addition, in assay [3], the neurite length was 20 μm.

In the case of `C[C@H](NC(=O)Cc1cc(F)cc(F)c1)C(=O)N[C@H]1N=C(c2ccccc2)c2ccccc2N(C)C1=O` [compound E, (S,S)-2-[2-(3,5-Difluorophenyl)-acetylamino]-N-(1-methy-2-oxo-5-phenyl-2,3-dihydro-1H-benzo[e][1,4]diazepin-3-yl)-propionamide], the “PC12 cell differentiation induced by EGF” value in assay [2] is listed as “neither the α- nor the γ-secretase inhibitor had any significant effect”. Further, the neurite length in assay [3] was determined as 20 μm.

Take “KRWNSCKQNKQGAN (c1-14 - Fragment of p75ICD) [(1-14)]”: the neurite growth entry in assay [1] was “stimulated neurite growth”. The “TrkA binding of biotinylated fragments” value in [4] is listed as “clearly bind TrkA”.

In the case of “SKGQVCRNQPGQNKPEPANKSWKETPLRN [SC, randomly scrambled version of c29, reference compound]”, the “rate of production of endogenous p75^CTF or p75^ICD fragments” value in [5] is “did not differ significantly”. Moreover, the median neurite outgrowth result in [1] (100 ng/ml NGF, day 5, peptide 1 μM, vs untreated cultures) is “no difference”. In assay [6], the “% of cell population with FITC above background” value turned out to be 100.3 ± 5.1%, the “Maximal fluorescence per cell of the population” value amounted to 100.4 ± 9.6%, the “Mean fluorescence per FITC-positive cell” value is given as 95.3 ± 7.4% and the Median population fluorescence is 97.0 ± 3.8%. The “NGF-induced cell death of motor neurons” value in [7] was “no effect”. Also, the “fluorescence of nontransfected cells incubated with peptide and NGF-FITC” value in assay [8] is reported as “only background levels of fluorescence”. Moreover, in assay [9], the “surface or total receptor levels of TrkA and p75^NTR” value is on record as “no significant difference”. For the same compound, in [10], the pAkt signalling result is reported as “no effect” and the pErk1/2 signalling result is listed as “no effect”.

For the compound KRWASA [c1-6C6A], the neurite growth entry in assay [1] was “stimulated neurite growth”.

On to “(22-29): truncated peptide fragment of c29, residues 22-29 (PPPEGEKL)”, for which the neurite growth result in assay [1] was “stimulated neurite growth”. In addition, the “TrkA binding of biotinylated fragments” value in assay [4] is “clearly bind TrkA”.

As for “SRPVNQTPPPEGEKL (c15-29 - Fragment of p75ICD) [(15-29)]”, the neurite growth entry in [1] was “stimulated neurite growth”. The “TrkA binding of biotinylated fragments” value in assay [4] is reported as “clearly bind TrkA”.

With “KRWNSC (c1-6 - Fragment of p75ICD) [(1-6)]”, the neurite growth entry in assay [1] is listed as “stimulated neurite growth”. In addition, the “TrkA binding of biotinylated fragments” value in assay [4] is listed as “clearly bind TrkA”.

Regarding KRWASC [c1-6N4A], the neurite growth result in assay [1] is “stimulated neurite growth”.
